Laboratory results published in PubChem BioAssay (NCI).
Several values for one entry are separate records, joined by “and”; a condition that tells them apart may be missing. Identical values can stand only once.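 Tested at 5 concentrations; 48 h exposure; 96-well plates; endpoints linearly interpolated, else capped at highest concentration. At the GI50, growth is halved. The concentration for full growth arrest is given as TGI.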 Where a SMILES comes first, the peptide text is derived from it. Bridges are numbered along the chain shown (N, C = ends). [ ]: non-standard residue; d: D form. aThr = C[C@H](O)[C@H](N)C(=O)O

Assays:
Test in all cases: NCI anticancer screen, dose series, 48 h
[1] = tested on: HCC-2998 colon
[2] = tested on: NCI/ADR-RES ovarian
[3] = tested on: CAKI-1 renal
[4] = tested on: K-562 leukemia
[5] = tested on: SK-OV-3 ovarian
[6] = tested on: M14 melanoma
[7] = tested on: UACC-257 melanoma
[8] = tested on: SK-MEL-5 melanoma

Structure (SMILES)	TGI [1]	TGI [2]	TGI [3]	TGI [4]	TGI [5]	TGI [6]	TGI [7]	TGI [8]	GI50 [1]	GI50 [2]	GI50 [3]	GI50 [4] [µM]	GI50 [5]	GI50 [6]	GI50 [7] [µM]	GI50 [8]
Cc1noc(NC(=O)Nc2ccccc2F)c1C#N	3.8 µM	> 100 µM	> 100 µM	> 100 µM	> 100 µM	> 42.6 µM	> 51 µM	> 100 µM	–	–	–	–	–	–	–	–
COCCN(Cc1ccc(F)cc1)c1ccc(CO)c(Cl)c1	> 100 µM	> 100 µM	> 100 µM	> 100 µM	> 100 µM	> 100 µM	2.5 µM	26.2 µM	24 µM	27.1 µM	21.2 µM	10	38.6 µM	38.9 µM	0.492	12.2 µM
Nc1nccc(-c2c(-c3ccc(F)cc3)nn3cc(C(F)(F)F)ccc23)n1	> 25 µM	> 25 µM	> 25 µM	> 25 µM	> 25 µM	> 25 µM	> 25 µM	> 25 µM	> 25 µM	> 25 µM	> 25 µM	> 25	> 25 µM	> 25 µM	> 25	> 25 µM
COC12C(COC(=O)NCCO)C3=C(C(=O)C(C)=C(N)C3=O)N1CC1NC12 (configuration not stated)	99.3 µM	> 264 µM	28.2 µM and 21.7 µM	> 264 µM	> 264 µM	> 264 µM	238 µM	45 µM and 58.2 µM	–	–	4.99 µM	–	100 µM	49.9 µM	79.1	23.9 µM
S=C1SCN(Cc2ccccc2)CN1Cc1ccco1	34.1 µM	> 100 µM	17.4 µM	> 100 µM	52.7 µM	19.3 µM	20.7 µM	26.9 µM	16.6 µM	17.9 µM	4.81 µM	3.62	12.9 µM	4.04 µM	6.28	11.7 µM
Cc1cc(Br)c(NC(=O)c2c(-c3c(Cl)cccc3Cl)noc2C)c(Br)c1	> 100 µM	> 100 µM	> 100 µM	> 100 µM	> 100 µM	> 100 µM	> 100 µM	> 100 µM	> 100 µM	> 100 µM	7.81 µM	> 100	> 100 µM	> 100 µM	> 100	> 100 µM
COc1ccccc1CNCCN1C(=O)c2ccc3c4c(ccc(c24)C1=O)C(=O)N(CCNCc1ccccc1OC)C3=O	0.354 µM	0.831 µM	5.26 µM	1.09 µM	3.15 µM	0.378 µM	0.387 µM	1.4 µM	0.182 µM	0.283 µM	1.64 µM	0.234	1.55 µM	0.189 µM	0.196	0.348 µM
Cc1ccc(S(=O)(=O)NCCCCC(N)C(=O)O)cc1 (configuration not stated)	–	> 100 µM	> 100 µM	> 100 µM	> 100 µM	> 100 µM	> 100 µM	> 100 µM	–	–	–	–	–	–	–	–
O=C(O)CN(CCN(CC(=O)O)CC(=O)O)CC(=O)O.[Mn+2]	> 100 µM	> 100 µM	> 100 µM	> 100 µM	> 100 µM	> 100 µM	> 100 µM	> 100 µM	> 100 µM	> 100 µM	> 100 µM	> 100	> 100 µM	> 100 µM	> 100	> 100 µM
CC(=O)O[C@H]1CC2C(C3CC[C@H](C(C)CCC(=O)O)[C@]31C)[C@H](OC(C)=O)C[C@@H]1CC3(CC[C@]21C)OOC1(CCC(C)CC1)OO3 (some centres not stated)	21.3 µM and 6.48 µM	18.3 µM and 4.53 µM	19.1 µM and 6.49 µM	16.8 µM and 6.21 µM	22.4 µM and 10.7 µM	19.3 µM and 10.9 µM	24.8 µM and 24.3 µM	20.1 µM and 12.5 µM	8.43 µM and 2.73 µM	4.88 µM and 2.02 µM	6.75 µM and 2.23 µM	–	10.6 µM and 3.14 µM	–	–	7.2 µM and 3.39 µM
C#Cc1ccc(-n2c(/C=C/c3ccc(O)cc3)nc3ncccc3c2=O)cc1	> 100 µM	> 100 µM	> 100 µM	> 100 µM	29.1 µM	8.08 µM	> 100 µM	7.45 µM	25.7 µM	5.27 µM	4.15 µM	4.33	3.38 µM	2.7 µM	6.3	2.24 µM
COc1cc(-c2nccc3[nH]c(-c4ccc5cc[nH]c5c4)nc23)cc(OC)c1OC	1.43 µM	10.7 µM	11.2 µM	2.28 µM	5.66 µM	–	–	0.563 µM	< 0.01 µM	0.01 µM	< 0.01 µM	< 0.01	< 0.01 µM	–	–	< 0.01 µM
[O]=[V]([OH])([OH])[OH]	> 100 µM	> 100 µM	70.6 µM	> 100 µM	> 100 µM	> 100 µM	> 100 µM	> 100 µM	> 100 µM	> 100 µM	25.6 µM	> 100	> 100 µM	> 100 µM	> 100	> 100 µM
COc1cc(/C=C/c2cc(/C=C/c3ccc(O)c(OC)c3)n(C(=O)c3ccccc3Br)n2)ccc1O	6.37 µM	> 100 µM	> 100 µM	> 100 µM	5.31 µM	> 100 µM	40.1 µM	13.3 µM	2.48 µM	3.72 µM	2.2 µM	1.45	2.24 µM	3.07 µM	3.36	2.56 µM
CC(=O)NC1C(O[C@H]2C[C@H]3[C@@H]4CC=C5C[C@@H](O)CC[C@]5(C)[C@H]4CC[C@]3(C)[C@H]2[C@H](C)C(=O)CCC(C)C)OCC(O)C1O (some centres not stated)	14.6 µM	> 42.5 µM	6.75 µM	5.16 µM	8.39 µM	1.57 µM	3.55 µM	6.49 µM	6.46 µM	13.1 µM	1.53 µM	1.35	2.01 µM	0.732 µM	1.4	1.85 µM
COc1ccc(/C=C2\CCC/C(=C\c3ccc(OC)c(OC)c3)C2=O)cc1OC	> 32.5 µM	17.5 µM	8.16 µM	> 32.5 µM	> 32.5 µM	> 32.5 µM	> 32.5 µM	> 32.5 µM	> 32.5 µM	1.18 µM	1.13 µM	2.28	12.1 µM	1.9 µM	4.65	1.88 µM

Structure (SMILES)	TGI [1]	TGI [2]	TGI [3]	TGI [4]	TGI [5]	TGI [6]	TGI [7]	TGI [8]	GI50 [1]	GI50 [2]	GI50 [3]	GI50 [4] [µM]	GI50 [5]	GI50 [6]	GI50 [7] [µM]	GI50 [8]
Cc1ccc(NC(=O)c2cc(S(=O)(=O)Nc3nnc(-c4ccccc4)c(-c4ccccc4)n3)c(SCc3ccccc3)cc2Cl)cc1	–	41.2 µM	40.7 µM	> 100 µM	41.6 µM	> 100 µM	41.7 µM	37.6 µM	–	20.4 µM	21.2 µM	23.8	22 µM	34.8 µM	20.7	19.2 µM
CC(C)C[C@@H]1NC(=O)[C@@H]2CCCN2C(=O)[C@@H]2CCCN2C(=O)[C@H](CC(C)C)NC(=O)[C@H](CO)NC(=O)[C@H](CCCCN)NC(=O)[C@H]([C@H](C)O)NC(=O)[C@@H]2CSSC[C@@H](NC1=O)C(=O)N[C@@H](Cc1ccccc1)C(=O)N1CCC[C@H]1C(=O)N[C@@H](CC(=O)O)C(=O)NCC(=O)N[C@@H](CCCN=C(N)N)C(=O)N2 (cyclo(C[aThr]KSLPPL[dC]FPDGR); disulfide 1-9)	> 50 µM	> 50 µM	> 50 µM	> 50 µM	> 50 µM	–	> 50 µM	> 50 µM	> 50 µM	> 50 µM	> 50 µM	> 50	> 50 µM	–	> 50	> 50 µM
CCCCCCCCCCCCCCNC(=O)Nc1ccc(Cl)c(Cl)c1	> 100 µM	> 28.4 µM	–	> 100 µM	> 28.3 µM	> 44.3 µM	11.3 µM	3.23 µM	2.85 µM	3.02 µM	–	8.04	3 µM	2.89 µM	2.78	1.68 µM
COCCOC1=C(Cl)C(=O)c2ccccc2C1=O	15 µM	6.7 µM	9.83 µM	–	16.8 µM	–	4.36 µM	3.51 µM	4.23 µM	2.39 µM	2.83 µM	–	4.55 µM	–	2	1.82 µM
CCc1ccc(Nc2cc(C)c3ccc(O)cc3n2)cc1	17.4 µM	> 100 µM	19 µM	15.4 µM	25.2 µM	18.1 µM	–	14.3 µM	5.18 µM	6.44 µM	4.92 µM	3.2	12.6 µM	5.42 µM	–	4.08 µM
CC(C)[C@@H]1CC[C@]2(CO2)[C@@H]2C(=O)OCC(C(=O)O)=C[C@H]21	> 52.3 µM	> 100 µM	> 100 µM	> 100 µM	> 100 µM	0.898 µM	–	1.51 µM	0.459 µM	0.431 µM	0.411 µM	0.334	0.438 µM	0.273 µM	–	0.348 µM
COCCN(CCOC)c1nc(-c2ccccc2)nc2ccccc12	–	61.2 µM	73.2 µM	> 100 µM	> 100 µM	56.6 µM	36.6 µM	32.9 µM	–	21.3 µM	23.2 µM	36.1	31.9 µM	13.9 µM	17.7	15.8 µM
COc1ccccc1Oc1nccc(-c2c(-c3ccc(F)cc3)ncn2C2CCNCC2)n1	> 25 µM	> 25 µM	> 25 µM	> 25 µM	> 25 µM	> 25 µM	–	> 25 µM	11.8 µM	> 25 µM	> 23.2 µM	8.32	> 25 µM	> 19.1 µM	–	7.2 µM
CC[C@H](C)[C@H](NC(=O)[C@H]1CCCCN1C)C(=O)N(C)[C@H](C[C@@H](OC(C)=O)c1nc(C(=O)NC23CC(C(=O)OC)(C2)C3)cs1)C(C)C	> 32.5 µM	0.371 µM	–	> 32.5 µM	> 32.5 µM	0.00618 µM	–	0.0299 µM and 0.0384 µM	0.00299 µM and 0.00325 µM	0.0522 µM and 0.0479 µM	0.00485 µM	–	0.0022 µM and 0.00357 µM	0.00554 µM and 0.00325 µM	–	0.000748 µM and 0.00325 µM
Cc1cc(Cl)nc(N(CCNc2ccnc3cc(Cl)ccc23)Cc2ccco2)n1	4.22 µM	4 µM	–	3.35 µM	7.44 µM	3.63 µM	4.16 µM	3.06 µM	2.03 µM	1.74 µM	–	1.54	2.56 µM	1.88 µM	1.97	1.67 µM
CC(=O)Oc1c(C(=O)[O-])cc(C(C)C)cc1C(C)C.CC(=O)Oc1c(C(=O)[O-])cc(C(C)C)cc1C(C)C.CC(=O)Oc1c(C(=O)[O-])cc(C(C)C)cc1C(C)C.CC(=O)Oc1c(C(=O)[O-])cc(C(C)C)cc1C(C)C.[Cu+2].[Cu+2]	–	–	> 100 µM	–	35.4 µM	> 100 µM	36.9 µM	32.9 µM	–	–	> 100 µM	–	14.4 µM	49.3 µM	18.2	18 µM
COc1ccc(-c2[nH]c3ccc(OC)cc3c2C=C(C#N)C#N)cc1	–	> 100 µM	> 100 µM	> 100 µM	> 100 µM	> 100 µM	> 100 µM	> 100 µM	–	0.389 µM	–	0.343	0.731 µM	0.376 µM	> 100	0.321 µM
COc1cc(OC)c(OC)cc1/C=C/c1nc2ccccc2s1	> 100 µM	> 100 µM	–	–	> 100 µM	> 100 µM	> 100 µM	> 100 µM	–	–	–	–	–	–	–	–
COc1ccc(Nc2cnc3cc(N)cc(N)c3n2)cc1	–	35 µM	64.9 µM	> 100 µM	80.9 µM	28 µM	45.9 µM	29.8 µM	–	16.4 µM	23 µM	5.69	28.2 µM	14.5 µM	19.4	16 µM
Cc1cccc(Cn2cc(CO)c3cnccc32)c1	> 100 µM	> 100 µM	> 100 µM	–	> 100 µM	> 100 µM	> 100 µM	> 100 µM	> 100 µM	55.2 µM	> 100 µM	–	> 100 µM	> 100 µM	44.2	24.1 µM
